The source of these data is US9505742B2, “3,4-dihydro-2H-isoquinoline-1-one and 2,3-dihydro-isoindol-1-one compounds” (Hoffmann-La Roche Inc., priority 2013, dated 2016).

The target of data set [1] is CYP11B2 (Homo sapiens, UniProt P19099). Conditions: patients with primary aldosteronism, cited from earlier work.
The conditions of data set [2]: rat CKD model, cited from earlier work; for plasma aldosterone: FAD286 4 weeks, spironolactone 4 and 8 weeks of treatment.
The conditions of data set [3]: rats with experimental heart failure; cited from earlier work.
Data set [4] has as its target T1, human CYP11B2 (Homo sapiens, UniProt P19099).
T1 construct: The expression plasmids contains the ORF for either human/cyno CYP11B1 or CYP11B2; expressed in transfected cells
T1 sequence (P19099 25-503): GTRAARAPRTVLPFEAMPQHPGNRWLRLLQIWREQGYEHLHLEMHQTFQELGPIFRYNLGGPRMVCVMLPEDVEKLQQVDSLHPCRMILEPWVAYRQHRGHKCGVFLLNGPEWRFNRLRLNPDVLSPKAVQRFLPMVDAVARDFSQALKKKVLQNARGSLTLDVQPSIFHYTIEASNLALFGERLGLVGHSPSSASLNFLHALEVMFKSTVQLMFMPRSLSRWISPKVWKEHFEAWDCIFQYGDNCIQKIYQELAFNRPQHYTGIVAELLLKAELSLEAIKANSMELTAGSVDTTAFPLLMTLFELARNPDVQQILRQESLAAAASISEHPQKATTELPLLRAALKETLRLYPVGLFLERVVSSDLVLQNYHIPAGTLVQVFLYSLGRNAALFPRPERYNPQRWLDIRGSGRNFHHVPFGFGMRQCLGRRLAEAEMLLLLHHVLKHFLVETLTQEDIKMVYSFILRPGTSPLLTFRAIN
As to the kind of experiment: G-402 cellular enzyme assay, human CYP11B2 (aldosterone release, HTRF). It counts as cell-based. To be noted: G-402 cells expressing human CYP11B2; 1 μM Deoxycorticosterone. An excerpt: (§1) Herein we identified the use of the G-402 cell line as a host cell to ectopically express (transiently or stably) enzymes of the CYP11 family. Specifically we developed stable G-402 cells expressing ectopically human CYP11B1, human CYP11B2, human CYP11A1, cynmolgus CYP11B1 or cynomolgus CYP11B2 enzyme activity. Importantly the identified cell line G-402 expresses co-factors (adrenodoxin and adrenodoxin reductase) important for the activity of the CYP11 family and no relevant enzyme activity of the CYP11 family (in comparison to H295R cells) was detected in these cells. Therefore the G-402 cell line is uniquely suited as a host cell for the ectopic expression of enzymes from the CYP11 family. G-402 cells can be obtained from ATCC (CRL-1440) and were originally derived from a renal leiomyoblastoma.
(§2) The expression plasmids contains the ORF for either human/cyno CYP11B1 or CYP11B2 under the control of a suitable promoter (CMV-promoter) and a suitable resistance marker (neomycin). Using standard techniques the expression plasmid is transfected into G-402 cells and these cells are then selected for expressing the given resistance markers. Individual cell-clones are then selected and assessed for displaying the desired enzymatic activity using 11-Deoxycorticosterone (Cyp11B2) or 11-Deoxycortisol (Cyp11B) as a substrate.
(§3) G-402 cells expressing CYP11 constructs were established as described above and maintained in McCoy's 5a Medium Modified, ATCC Catalog No. 30-2007 containing 10% FCS and 400 μg/ml G418 (Geneticin) at 37° C. under an atmosphere of 5% CO2/95% air. Cellular enzyme assays were performed in DMEM/F12 medium containing 2.5% charcoal treated FCS and appropriate concentration of substrate (0.3-10 uM 11-Deoxycorticosterone, 11-Deoxycortisol or Corticosterone). For assaying enzymatic activity, cells were plated onto 96 well plates and incubated for 16 h. An aliquot of the supernatant is then transferred and analyzed for the concentration of the expected product (Aldosterone for CYP11B2; Cortisol for CYP11B1). The concentrations of these steroids can be determined using HTRF assays from CisBio analyzing either Aldosterone or Cortisol.
(§4) Inhibition of the release of produced steroids can be used as a measure of the respective enzyme inhibition by test compounds added during the cellular enzyme assay. The dose dependent inhibition of enzymatic activity by a compound is calculated by means of plotting added inhibitor concentrations (x-axes) vs. measured steroid/product level (y-axes). The inhibition is then calculated by fitting the following 4-parameter sigmoidal function (Morgan-Mercer-Flodin (MMF) model) to the raw data points using the least squares method:
(§5) [formula] wherein, A is the maximum y value, B is the EC50 factor determined using XLFit, C is the minimum y value and D is the slope value.
(§6) EC50 values for compounds claimed herein were tested with the G402-based assay system described. Cyp11B2 enzyme activity was tested in presence of 1 μM Deoxycorticosterone and variable amounts of inhibitors; Cyp11B1 enzyme activity was tested in presence of 1 μM Deoxycortisol and variable amounts of inhibitors.
For orientation: TR-FRET usually uses a lanthanide donor and a delayed reading to cut background.

In data set [5] the target is T2, human CYP11B1 (Homo sapiens, UniProt P15538).
T2 construct: The expression plasmids contains the ORF for either human/cyno CYP11B1 or CYP11B2; expressed in transfected cells
T2 sequence (P15538 25-503): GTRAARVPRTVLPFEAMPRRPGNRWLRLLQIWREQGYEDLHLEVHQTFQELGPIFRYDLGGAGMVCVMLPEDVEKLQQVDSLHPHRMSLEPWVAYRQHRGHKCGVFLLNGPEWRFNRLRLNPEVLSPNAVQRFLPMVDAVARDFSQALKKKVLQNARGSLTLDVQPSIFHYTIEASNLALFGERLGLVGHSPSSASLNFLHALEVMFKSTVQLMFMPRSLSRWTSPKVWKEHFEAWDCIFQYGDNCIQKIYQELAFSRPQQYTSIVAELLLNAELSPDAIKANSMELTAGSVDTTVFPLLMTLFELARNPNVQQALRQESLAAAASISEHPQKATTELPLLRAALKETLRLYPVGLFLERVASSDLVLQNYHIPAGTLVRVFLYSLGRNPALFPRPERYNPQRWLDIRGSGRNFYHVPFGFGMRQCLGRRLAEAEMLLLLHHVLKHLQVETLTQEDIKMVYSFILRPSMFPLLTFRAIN
The data set is described as follows: G-402 cellular enzyme assay, human CYP11B1 (cortisol release, HTRF). It counts as cell-based. Conditions: G-402 cells expressing human CYP11B1; 1 μM Deoxycortisol.
Text: as §1, §2, §3, §4, §5, §6

Structures are written as SMILES.

Regarding `N#Cc1ccc([C@H]2CCc3cncn32)c(F)c1` [LCI699], in data set [1] (oral), the circulating aldosterone levels result is “significantly lower”. In data set [1], the blood pressure result is reported as “mildly decreased”, the hypokalemia entry is on record as “corrected” and the “selectivity / effects on the glucocorticoid axis” value is recorded as “poor selectivity”.
On to `N#Cc1ccc(C2CCCc3cncn32)cc1` (stereo not shown) [FAD286], for which, in data set [2], the plasma aldosterone entry is listed as “reduced”; the “angiotensin II and salt-stimulated PAI-1 mRNA expression in the aorta and the heart” value was “not”; the “renal effects of angiotensin II and high salt (albuminuria, azotemia, renovascular hypertrophy, glomerular injury, PAI-1 and osteopontin mRNA, tubulointerstitial fibrosis)” value is listed as “prevented these renal effects”. Further, in data set [3], the “blood pressure and cardiovascular function and structure” value is reported as “improved”; the “kidney function and morphology” value is given as “improve”.
Take `CCS(=O)(=O)N1CCC(c2cncc(N3C(=O)c4ccc(Cl)cc4[C@@H]3C)c2)CC1` (single isomer, unassigned) [Example 25, (−)-(3S or 3R)-5-chloro-2-[5-(1-ethylsulfonylpiperidin-4-yl)pyridin-3-yl]-3-methyl-3H-isoindol-1-one]: the EC50 is 2 nM in data set [4] and 107 nM in data set [5].
Take `COc1ccc2c(n1)C(C)(C)N(c1cncc(C3(F)CCN(C(=O)c4nccn4C)CC3)c1)C2=O` [Example 44, 6-[5-[4-Fluoro-1-(1-methylimidazole-2-carbonyl)-4-piperidyl]-3-pyridyl]-2-methoxy-7,7-dimethyl-pyrrolo[3,4-b]pyridin-5-one]: the concentration for a half-maximal effect (EC50) in data set [4] is 4 nM; in data set [5] it was 8 nM.
As to `CCS(=O)(=O)N1CCC(c2cncc(N3C(=O)c4ccc(OC)nc4C3(C)C)c2)CC1` [Example 46, 6-[5-(1-Ethylsulfonyl-4-piperidyl)-3-pyridyl]-2-methoxy-7,7-dimethyl-pyrrolo[3,4-b]pyridin-5-one], the values for the EC50 in data set [4] and in data set [5] were 23 nM and 1920 nM, respectively.
On to `CC1(C)c2cc(Cl)ccc2C(=O)N1c1cncc(C2CN(S(=O)(=O)C3CC3)C2)c1` [Example 35, 5-Chloro-2-[5-(1-cyclopropylsulfonylazetidin-3-yl)pyridin-3-yl]-3,3-dimethylisoindol-1-one], for which the EC50 in data set [4] amounted to 8 nM; in data set [5], 325 nM.
In the case of `CCS(=O)(=O)N1CCC(c2cncc(N3C(=O)c4ccc(Cl)cc4C3(C)C)c2)C1` (stereo not shown) [Example 7, 5-Chloro-2-[5-(1-ethylsulfonylpyrrolidin-3-yl)pyridin-3-yl]-3,3-dimethylisoindol-1-one], the results for the 50% effective concentration (EC50) in data set [4] and in data set [5] were 2 nM and 149 nM, respectively.
On to `CC(=O)S[C@@H]1CC2=CC(=O)CC[C@]2(C)[C@H]2CC[C@@]3(C)[C@@H](CC[C@@]34CCC(=O)O4)[C@H]12` [spironolactone], for which, in data set [2], the plasma aldosterone entry was “increased”; the “angiotensin II and salt-stimulated PAI-1 mRNA expression in the aorta and the heart” value was “enhanced”; the “renal effects of angiotensin II and high salt (albuminuria, azotemia, renovascular hypertrophy, glomerular injury, PAI-1 and osteopontin mRNA, tubulointerstitial fibrosis)” value is recorded as “prevented these renal effects”.
As for `Cc1ccncc1C(=O)N1CC(c2cncc(N3C(=O)c4ccc(Cl)cc4C3(C)C)c2)C1` [Example 36, 5-Chloro-3,3-dimethyl-2-[5-[1-(4-methylpyridine-3-carbonyl)azetidin-3-yl]pyridin-3-yl]isoindol-1-one], the figures for the 50% effective concentration (EC50) in data set [4] and in data set [5] were 18 nM and 1400 nM, respectively.
In the case of `CC(C)S(=O)(=O)N1CCC(c2cncc(N3C(=O)c4ccc(Cl)cc4C3(C)C)c2)C1` (single isomer, unassigned; (-)) [Example 11, (−)-5-chloro-3,3-dimethyl-2-[5-[(3S or 3R)-1-propan-2-ylsulfonylpyrrolidin-3-yl]pyridin-3-yl]isoindol-1-one], the figures for the EC50 in data set [4] and in data set [5] were 7 nM and 601 nM, respectively.
For `COc1ccc2c(n1)C(C)(C)N(c1cncc(C3CCN(C(=O)c4cnccc4C)CC3)c1)C2=O` [Example 49, 2-Methoxy-7,7-dimethyl-6-[5-[1-(4-methylpyridine-3-carbonyl)-4-piperidyl]-3-pyridyl]pyrrolo[3,4-b]pyridin-5-one] the same measures were 151 nM and 1320 nM.
Turning to `CC1(C)c2cc(Cl)ccc2C(=O)N1c1cncc(C2CCN(S(=O)(=O)C3CC3)C2)c1` (single isomer, unassigned; (+)) [Example 12, (+)-5-chloro-2-[5-[(3R or 3S)-1-cyclopropylsulfonylpyrrolidin-3-yl]pyridin-3-yl]-3,3-dimethylisoindol-1-one], the EC50 in data set [4] was determined as 2 nM; in data set [5] it was 75 nM.
On the same counts, the results for `CC1(C)c2cc(Cl)ccc2C(=O)N1c1cncc(C2CCN(S(C)(=O)=O)CC2)c1` [Example 3, 5-Chloro-3,3-dimethyl-2-[5-(1-methylsulfonylpiperidin-4-yl)pyridin-3-yl]isoindol-1-one] are 2 nM and 53 nM.
On the same counts, the results for `COc1ccc2c(n1)C(C)(C)N(c1cncc(C3(F)CCN(S(=O)(=O)C(C)C)CC3)c1)C2=O` [Example 42, 6-[5-(4-Fluoro-1-isopropylsulfonyl-4-piperidyl)-3-pyridyl]-2-methoxy-7,7-dimethyl-pyrrolo[3,4-b]pyridin-5-one] are 34 nM and 8070 nM.

In general, EC50 refers to the concentration giving half of the maximal effect. A lower EC50 goes with a more potent agent.
